We go through seven compounds from PMC12045974, “T cell toxicity induced by tigecycline binding to the mitochondrial ribosome” (Nature Communications, 2025).

The subject of assay [1] is PBMCs. The assay can be described thus: Cell viability assay (CCK-8), PBMCs. It counts as cell-based, human. Conditions: Homo sapiens, PBMC, 72 h, PBMCs, read-out: cell vialibity normalized to Vehicle (DMSO). The protocol: Buffy coats were ordered from anonymous blood donors at […]. […] Cells were seeded in 96-well plates ranging from 2000 to 15,000 cells per well depending on different cell lines and treated with antibiotics in serial dilutions for 72 h (120 h for the preliminary assays) in a humidified incubator (37 °C, 5% CO2) in 100 μl medium (DMEM with 10% FBS, 2.05 mM L-glutamine (Sigma) for Hek293 and Hela; RPMI-1640 with 10% FBS, 2.05 mM L-glutamine (Sigma), and 55 μM 2-ME (Gibco) for Jurkat T cells and PBMCs). Based on preliminary tests, the number of cells per well was optimized to 2000 for Hela and Hek293, 6000 for Jurkat T cells, and 15,000 for PBMCs. The stocks of antibiotics were prepared by dissolving in DMSO. As control, the same amount of DMSO was added to the non-treated groups. Serial drug dilutions were prepared in the corresponding medium to provide a total of 9 concentrations up to 300 μM for tetracyclines and up to 900 μM for additional bacterial protein synthesis inhibitors. After drug treatment, 10% CCK-8 (Cell Counting Kit-8, Sigma Aldrich) (10 μl per well) of the total volume was added to the cells and incubated for 1-4 h depending on cell lines (1 h for Hela and Hek293; 3 h for Jurkat T cells; 4 h for PBMCs) before the evaluation of the effect of antibiotics on cell viability. […] Results were visually confirmed under the light microscope. Each treatment was performed in technical repeats. Dose-response curves were plotted, mean ± SEM was shown, and half maximal inhibitory concentration (IC50) values were calculated in GraphPad Prism.

In assay [2] the test system is Jurkat T cells. The assay can be described thus: Cell viability assay (CCK-8), Jurkat T cells. It counts as cell-based, human. Conditions: Jurkat, 72 h, Fig. 1A, in % (unit assumed). The protocol:
Cells were seeded in 96-well plates ranging from 2000 to 15,000 cells per well depending on different cell lines and treated with antibiotics in serial dilutions for 72 h (120 h for the preliminary assays) in a humidified incubator (37 °C, 5% CO2) in 100 μl medium (DMEM with 10% FBS, 2.05 mM L-glutamine (Sigma) for Hek293 and Hela; RPMI-1640 with 10% FBS, 2.05 mM L-glutamine (Sigma), and 55 μM 2-ME (Gibco) for Jurkat T cells and PBMCs). Based on preliminary tests, the number of cells per well was optimized to 2000 for Hela and Hek293, 6000 for Jurkat T cells, and 15,000 for PBMCs. The stocks of antibiotics were prepared by dissolving in DMSO. As control, the same amount of DMSO was added to the non-treated groups. Serial drug dilutions were prepared in the corresponding medium to provide a total of 9 concentrations up to 300 μM for tetracyclines and up to 900 μM for additional bacterial protein synthesis inhibitors. After drug treatment, 10% CCK-8 (Cell Counting Kit-8, Sigma Aldrich) (10 μl per well) of the total volume was added to the cells and incubated for 1–4 h depending on cell lines (1 h for Hela and Hek293; 3 h for Jurkat T cells; 4 h for PBMCs) before the evaluation of the effect of antibiotics on cell viability. […] Results were visually confirmed under the light microscope. Each treatment was performed in technical repeats. Dose-response curves were plotted, mean ± SEM was shown, and half maximal inhibitory concentration (IC50) values were calculated in GraphPad Prism.

Values joined by “and” are separate entries in the source; they are usually repeats but may differ in a detail not shown here. Identical values can stand only once. Like-named read-outs stand apart in the source and are kept apart here.

`CC[C@H]1OC(=O)[C@H](C)[C@@H](O[C@H]2C[C@@](C)(OC)[C@@H](O)[C@H](C)O2)[C@H](C)[C@@H](O[C@@H]2O[C@H](C)C[C@H](N(C)C)[C@H]2O)[C@](C)(O)C[C@@H](C)CN(C)[C@H](C)[C@@H](O)[C@]1(C)O` [Azithromycin, azithromycin]: in assay [1] (Fig. 1B), the viability at 1.23457 µM was determined as 91% and the viability at 11.1111 µM is 82%.

`CCC[C@@H]1C[C@@H](C(=O)N[C@@H]([C@H]2O[C@H](SC)[C@H](O)[C@@H](O)[C@H]2O)[C@H](C)Cl)N(C)C1` [Clindamycin, clindamycin]: in assay [1] (Fig. 1B), the viability at 0.137174 µM was found to be 97%, the viability at 0.411523 µM amounted to 95.8%, the viability at 1.23457 µM was determined as 92.3% and the viability at 11.1111 µM is 102%. Besides, in assay [1] (Fig. 1B), the viability at 100 µM was 94.6% and the viability at 300 µM turned out to be 63%.

For `CC(=O)NC[C@H]1CN(c2ccc(N3CCOCC3)c(F)c2)C(=O)O1` [Linezolid, linezolid], the viability at 300 µM in assay [1] (Fig. 1B) came out at 24.4%.

For the compound `C=C1c2cccc(O)c2C(=O)C2=C(O)[C@]3(O)C(=O)C(C(N)=O)=C(O)[C@@H](N(C)C)[C@@H]3[C@@H](O)[C@H]12` [Methacycline, methacycline], the “cell vialibity normalized to Vehicle (DMSO)” value (shortened to “cell vialibity normalized”) in assay [2] (dose 0.0457247 μM) was 104.711 and 102.732 and 106.75; in assay [2] (dose 0.137174 μM) it was 102.378 and 109.807 and 118.32; in assay [2] (dose 0.411523 μM), 103.32 and 108.822 and 104.75; in assay [2] (dose 1.23457 μM), 108.031 and 101.209 and 106; in assay [2] (dose 3.7037 μM) it was 100.628 and 106.046 and 105.75; in assay [2] (dose 11.1111 μM), 118.035 and 121.182 and 107.162. Further, the “cell vialibity normalized” value in assay [2] (dose 33.3333 μM) is 32.5707 and 32.2436 and 34.2424; in assay [2] (dose 100 μM) it was 20.0538 and 20.6001 and 28.3196; in assay [2] (dose 300 μM), 11.2607 and 14.1961 and 17.0248. For the same compound, the viability at 0.0457247 µM in assay [1] (Fig. 1A) is 105%. Further, in assay [1] (Fig. 1A), the viability at 0.411523 µM worked out at 102%. Further, the viability at 100 µM in assay [1] (Fig. 1A) was determined as 30%.

Consider `CN(C)c1ccc(O)c2c1C[C@H]1C[C@H]3[C@H](N(C)C)C(O)=C(C(N)=O)C(=O)[C@@]3(O)C(O)=C1C2=O` [Minocycline, minocycline], for which the “cell vialibity normalized” value in assay [2] (dose 0.0457247 μM) is 100.385 and 100.531 and 101.165; in assay [2] (dose 0.411523 μM) it was 98.2906 and 97.4244 and 90.1654; in assay [2] (dose 1.23457 μM) it was 99.8718 and 96.2387 and 90.2372; in assay [2] (dose 3.7037 μM), 105.513 and 101.758 and 90.3163; in assay [2] (dose 11.1111 μM) it was 49.6581 and 44.3173 and 49.0295; in assay [2] (dose 33.3333 μM) it was 19.6154 and 18.6836 and 25.6578. Moreover, the “cell vialibity normalized” value was 12.3932 and 10.5887 and 15.9454 in assay [2] (dose 100 μM); 6.111 and 6.95 and 5.018 in assay [2] (dose 300 μM). The viability at 0.0457247 µM in assay [1] (Fig. 1A) turned out to be 97.4%. Besides, in assay [1] (Fig. 1A), the viability at 0.137174 µM is 98.5%. In assay [1] (Fig. 1A), the viability at 0.411523 µM was 100%. For the same compound, the viability at 1.23457 µM in assay [1] (Fig. 1A) came to 95.2%. In assay [1] (dose 3.7037 μM, Fig. 1A), the viability at 3.7037 µM was found to be 91.6%. Also, in assay [1] (Fig. 1A), the viability at 11.1111 µM amounted to 87.6%. Also, the viability at 33.3333 µM in assay [1] (dose 33.3333 μM, Fig. 1A) is 81.2%. In addition, the viability at 100 µM in assay [1] (Fig. 1A) turned out to be 46.6%.

Take `CN(C)[C@@H]1C(O)=C(C(N)=O)C(=O)[C@@]2(O)C(O)=C3C(=O)c4c(O)cccc4[C@@](C)(O)[C@H]3C[C@@H]12` [Tetracycline, tetracycline]: the “cell vialibity normalized” value in assay [2] (dose 0.0457247 μM) is 102.181 and 108.663 and 114.096; in assay [2] (dose 0.137174 μM), 99.1611 and 103.998 and 102.471; in assay [2] (dose 0.411523 μM) it was 100 and 102.207 and 96; in assay [2] (dose 1.23457 μM), 99.3708 and 109.246 and 98.7059; in assay [2] (dose 3.7037 μM), 100.377 and 106.955 and 130.118; in assay [2] (dose 11.1111 μM) it was 115.478 and 121.824 and 122.353. For the same compound, in assay [2] (dose 100 μM), the “cell vialibity normalized” value is 13.3809 and 13.536 and 12.3529. The viability at 0.0457247 µM in assay [1] (Fig. 1A) turned out to be 96%. Besides, the viability at 100 µM in assay [1] (Fig. 1A) amounted to 42.5%. Also, in assay [1] (Fig. 1A), the viability at 300 µM worked out at 28.2%.

Consider `C=C[C@]1(C)C[C@@H](OC(=O)CSCCN(CC)CC)[C@]2(C)[C@H](C)CC[C@]3(CCC(=O)[C@H]32)[C@@H](C)[C@@H]1O` [Tiamulin, tiamulin], for which, in assay [1] (Fig. 1B), the viability at 0.411523 µM came out at 103% and the viability at 300 µM is 7.89%. In addition, the viability at 900 µM in assay [1] (dose 900 μM, Fig. 1B) was 3.99%.
